Each molecule was assayed against β2 adrenergic receptor (Homo sapiens (Human), UniProt P07550) (assay: cAMP Gs dynamic HTRF assay, β2 expressing CHO cells). Conditions: Average pEC50 [Receptor subtype: B2-AR; Cell type: CHO-K1 (HitHunter)], B2-AR; CHO-K1 (HitHunter).
Chain of β2 adrenergic receptor (P07550 whole entry, species assumed): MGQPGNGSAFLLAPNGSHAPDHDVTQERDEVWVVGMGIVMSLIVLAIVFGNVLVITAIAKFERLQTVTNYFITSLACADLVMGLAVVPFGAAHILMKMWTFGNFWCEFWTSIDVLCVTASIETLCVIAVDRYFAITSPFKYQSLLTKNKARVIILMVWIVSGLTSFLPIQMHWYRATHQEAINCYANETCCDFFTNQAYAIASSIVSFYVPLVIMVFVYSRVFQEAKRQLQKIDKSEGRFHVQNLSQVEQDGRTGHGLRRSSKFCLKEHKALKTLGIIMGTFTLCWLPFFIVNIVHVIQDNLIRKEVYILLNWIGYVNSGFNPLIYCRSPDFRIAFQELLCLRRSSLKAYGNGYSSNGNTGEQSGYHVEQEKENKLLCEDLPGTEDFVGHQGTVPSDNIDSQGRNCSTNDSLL
Format: cell-based
Method in brief: (§1)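 Intracellular cAMP quantified by Eu-donor/d2-acceptor HTRF after 30 min compound exposure at 37° C in stimulation buffer with IBMX. Concentrations ran 10 μM top, 5-fold steps, 10 points. Cell lines: 1321N1 astrocytoma and CHO expressing β1 or β2; EC50 via four-parameter fit, relative efficacy against isoproterenol.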
Work on `COc1ccc(C[C@@H](C)NC[C@H](O)c2ccc(OC)nc2C)cc1` [Compound 03-253] yielded an EC50 of 10 to 100 nM. Molecule `COc1ccc(C[C@@H](C)NC[C@H](O)c2cccnc2C2CCCC2)cc1` [Compound 03-64] has an EC50 of 100 to 1000 nM. Molecule `COc1ccc(C[C@@H](C)NC[C@H](O)c2cccnc2C2=CCCC2)cc1` [Compound 03-63] has an EC50 of 100 to 1000 nM.

Same assay, conditions: B2-AR; CHO-K1 (HitHunter); read-out: Average pEC50 [Receptor subtype: B2-AR; Cell type: CHO-K1 (HitHunter)] (converted)
With `COc1ccc(C[C@@H](C)NC[C@H](O)c2cccc(OC(F)(F)F)n2)cc1` [Compound 03-257] the EC50 was < 10 nM. With `CC(C)(C)NC[C@H](O)c1cccnc1OC(F)(F)F` [Compound 03-70] the EC50 was 10 to 100 nM. For `CC(C)(C)NC[C@H](O)c1cccc(C(C)(C)C)n1` [Compound 03-209], the EC50 was < 10 nM. With `CC(C)(C)NC[C@H](O)c1cccc(C2CCCC2)n1` [Compound 03-237] the EC50 was < 10 nM. `CC(C)(C)NC[C@@H](O)c1cccc(C2CCC2)n1` [Compound 03-162] was tested, and the EC50 was 10 to 100 nM. In the case of `C=CCc1ncccc1[C@@H](O)CNC(C)(C)C` [Compound 03-243], the EC50 is reported as 10 to 100 nM. For `CC(C)(C)NC[C@@H](O)c1ccnc(C#N)c1` [Compound 03-111], the EC50 was 10 to 100 nM. For `CN(C)c1cccc([C@@H](O)CNC(C)(C)C)n1` [Compound 03-153], the EC50 was < 10 nM. In the case of `CC(C)(C)NC[C@H](O)c1cc(F)cnc1C1=CCCC1` [Compound 03-89], the EC50 is reported as 100 to 1000 nM. With `Cc1ncc(Cl)cc1[C@@H](O)CNC(C)(C)C` [Compound 03-267] the EC50 was 10 to 100 nM. In the case of `CC(C)(C)NC[C@H](O)c1cccc(C2CCOCC2)n1` [Compound 03-121], the EC50 is reported as < 10 nM. In the case of `Cc1ccc([C@@H](O)CNC(C)(C)C)c(C)n1` [Compound 03-67], the EC50 is reported as < 10 nM. For `CC(C)(C)NC[C@@H](O)c1cccc(-n2ccnc2)n1` [Compound 03-228], the EC50 was < 10 nM. With `CC(C)(C)NC[C@H](O)c1cccc(NC2CCC2)n1` [Compound 03-190] the EC50 was < 10 nM. `CC(C)(C)NC[C@H](O)c1cccc(C2=CCCC2)n1` [Compound 03-197] was tested, and the EC50 was < 10 nM. For `CC(C)(C)NC[C@H](O)c1cccc(-n2nccn2)n1` [Compound 03-101], the EC50 was 10 to 100 nM. For `Cn1cc(-c2cccc([C@@H](O)CNC(C)(C)C)n2)cn1` [Compound 03-215], the EC50 was < 10 nM. `CC(C)(C)NC[C@@H](O)c1cccc(Cl)n1` [Compound 03-230] was tested, and the EC50 was 10 to 100 nM.

Same assay, conditions: B2-AR; CHO-K cells; read-out: Average EC50 [Receptor subtype: B2-AR; Cell type: CHO-K]
Work on `CC(C)(C)NC[C@@H](O)c1cccc(C2CCC2)n1` [Compound 03-162] yielded an EC50 of 10 to 100 nM. For `CN(C)c1cccc([C@@H](O)CNC(C)(C)C)n1` [Compound 03-153], the EC50 was < 10 nM. In the case of `CC(C)(C)NC[C@H](O)c1cccc(C2CCOCC2)n1` [Compound 03-121], the EC50 is reported as < 10 nM.

These molecules were tested against β2 adrenergic receptors in human astrocytoma cells (1321N1) (Homo sapiens (Human), UniProt P07550) (assay: cAMP HTRF assay in human astrocytoma cells (1321N1)). Conditions: not given.
Chain of β2 adrenergic receptors in human astrocytoma cells (1321N1) (P07550 whole entry): as the sequence (P07550 whole entry, species assumed) above
Format: cell-based
Description: cAMP homogeneous time-resolved fluorescence (HTRF). Compound efficacy was determined using the cAMP Gs dynamic HTRF assay (Cisbio, catalog #62AM4PEC) largely following the manufacturer's instructions, also detailed below.
Compound preparation. […] Standard serial dilution curves were 10-point, 5-fold dilutions starting from a highest concentration of 10 μM. […] Assay plates were centrifuged at 500×g for 10 seconds. Compounds and IBMX were prepared at 2× final dose to compensate for addition of cells.
Cell preparation. 1× stimulation buffer, washing PBS (Dulbecco's phosphate-buffered saline, −Mg −Ca; Caisson Labs, catalog #PBL01), assay PBS (Dulbecco's phosphate-buffered saline, +Mg, +Ca; Caisson Labs, catalog #PBL02) and Versene (0.02% EDTA disodium salt solution in PBS without calcium or magnesium; Caisson Labs, catalog #EDL01) were pre-warmed to 37° C. Cells expressing beta-adrenergic receptor were washed in washing PBS to remove growth medium and then released from the surface by incubating with Versene for 5-10 minutes at 37° C. Cells were harvested using assay PBS, counted manually by hemocytometer or by an automated cell counter, pelleted by centrifugation (200×g, 5 minutes) and resuspended in 37° C. 1× stimulation buffer to a final density of 1.5×10^6 cells/mL. 5 μL of the suspended cell solution (7500 cell total) were added to all wells of the 384 well assay plate, the assay plate was covered with an Axygen® plate seal (Corning PCR-SP) and incubated in a humidified 37° C. environment supplemented with 5% CO2 for 30 minutes.
HTRF reagent addition, reading and data analysis. After 30 minutes of cell stimulation with test compound, the assay plates were centrifuged at 500×g for 10 seconds, and incubation was stopped with the addition of 5 μL cAMP-D2 acceptor, diluted 1:21 in detection and lysis buffer 2 (Cisbio 62CL2FDF) was added to all cells. Subsequently, 5 μL Anti-cAMP-Eu Donor, diluted 1:21 in detection and lysis buffer 2, was added to cells. Plates were sealed and reactions gently ‘vortexed’ at 900 rpm on a Heidolph Titramax 1000 for at least 30 minutes at room temperature. Plates were centrifuged again at 500×g for 10 seconds, and HTRF was measured using a Tecan Spark plate reader at 50 flashes per well. […] Potency estimates (EC50) were derived from the four-parameter nonlinear regression of the concentration-effect curve and an estimate of relative efficacy was determined by comparing the magnitude of the test compound HTRF signal window (min−max dose) with the signal window of the full agonist control, isoproterenol.
For `COc1ccc(C[C@@H](C)NC[C@H](O)c2ccc(OC)nc2C)cc1` [Compound 03-253], the EC50 was 100 to 1000 nM. Molecule `COc1ccc(C[C@@H](C)NC[C@H](O)c2cccnc2C2CCCC2)cc1` [Compound 03-64] has an EC50 of 100 to 1000 nM. In the case of `COc1ccc(C[C@@H](C)NC[C@H](O)c2cccnc2C2=CCCC2)cc1` [Compound 03-63], the EC50 is reported as > 1000 nM.

Same assay, conditions: Endogenous receptor; 1321N1 cells; read-out: Average pEC50 [Receptor subtype: Endogenous; Cell type: 1321N1] (converted)
For `COc1ccc(C[C@@H](C)NC[C@H](O)c2cccc(OC(F)(F)F)n2)cc1` [Compound 03-257], the EC50 was < 10 nM. `CC(C)(C)NC[C@H](O)c1cccnc1OC(F)(F)F` [Compound 03-70] was tested, and the EC50 was 10 to 100 nM. With `CC(C)(C)NC[C@H](O)c1cccc(C(C)(C)C)n1` [Compound 03-209] the EC50 was < 10 nM. With `CC(C)(C)NC[C@H](O)c1cccc(C2CCCC2)n1` [Compound 03-237] the EC50 was < 10 nM. Work on `CC(C)(C)NC[C@@H](O)c1cccc(C2CCC2)n1` [Compound 03-162] yielded an EC50 of 100 to 1000 nM. Work on `C=CCc1ncccc1[C@@H](O)CNC(C)(C)C` [Compound 03-243] yielded an EC50 of 100 to 1000 nM. Work on `CC(C)(C)NC[C@@H](O)c1ccnc(C#N)c1` [Compound 03-111] yielded an EC50 of 100 to 1000 nM. For `CN(C)c1cccc([C@@H](O)CNC(C)(C)C)n1` [Compound 03-153], the EC50 was 10 to 100 nM. With `CC(C)(C)NC[C@H](O)c1cc(F)cnc1C1=CCCC1` [Compound 03-89] the EC50 was > 1000 nM. `Cc1ncc(Cl)cc1[C@@H](O)CNC(C)(C)C` [Compound 03-267] showed an EC50 of 100 to 1000 nM. `CC(C)(C)NC[C@H](O)c1cccc(C2CCOCC2)n1` [Compound 03-121] was tested, and the EC50 was < 10 nM. Work on `Cc1ccc([C@@H](O)CNC(C)(C)C)c(C)n1` [Compound 03-67] yielded an EC50 of 10 to 100 nM. With `CC(C)(C)NC[C@@H](O)c1cccc(-n2ccnc2)n1` [Compound 03-228] the EC50 was < 10 nM. With `CC(C)(C)NC[C@H](O)c1cccc(NC2CCC2)n1` [Compound 03-190] the EC50 was < 10 nM. With `CC(C)(C)NC[C@H](O)c1cccc(C2=CCCC2)n1` [Compound 03-197] the EC50 was < 10 nM. Molecule `CC(C)(C)NC[C@H](O)c1cccc(-n2nccn2)n1` [Compound 03-101] has an EC50 of 100 to 1000 nM. `Cn1cc(-c2cccc([C@@H](O)CNC(C)(C)C)n2)cn1` [Compound 03-215] showed an EC50 of 10 to 100 nM. `CC(C)(C)NC[C@@H](O)c1cccc(Cl)n1` [Compound 03-230] was tested, and the EC50 was 100 to 1000 nM.

The molecules below were run against β1-adrenergic receptor (Homo sapiens (Human), UniProt P08588) (assay: cAMP Gs dynamic HTRF assay, β1 expressing CHO cells). Conditions: Average pEC50 [Receptor subtype: B1-AR; Cell type: CHO-K1 (HitHunter)], B1-AR; CHO-K1 (HitHunter).
Chain of β1-adrenergic receptor (P08588 whole entry, species assumed): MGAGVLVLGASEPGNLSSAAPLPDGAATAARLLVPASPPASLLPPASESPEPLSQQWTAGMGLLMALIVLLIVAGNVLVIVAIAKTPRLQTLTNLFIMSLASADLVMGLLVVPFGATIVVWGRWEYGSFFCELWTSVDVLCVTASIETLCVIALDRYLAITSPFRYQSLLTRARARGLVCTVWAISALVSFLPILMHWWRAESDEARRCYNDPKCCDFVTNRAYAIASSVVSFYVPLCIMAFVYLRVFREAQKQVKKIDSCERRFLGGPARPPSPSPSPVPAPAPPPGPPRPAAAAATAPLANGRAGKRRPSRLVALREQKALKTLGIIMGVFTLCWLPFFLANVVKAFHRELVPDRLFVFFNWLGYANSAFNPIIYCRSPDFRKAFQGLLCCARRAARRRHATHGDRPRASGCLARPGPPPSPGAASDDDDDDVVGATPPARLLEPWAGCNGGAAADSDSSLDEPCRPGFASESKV
Format: cell-based
Method in brief: as §1
In the case of `COc1ccc(C[C@@H](C)NC[C@H](O)c2ccc(OC)nc2C)cc1` [Compound 03-253], the EC50 is reported as > 1000 nM. In the case of `COc1ccc(C[C@@H](C)NC[C@H](O)c2cccnc2C2CCCC2)cc1` [Compound 03-64], the EC50 is reported as > 1000 nM. For `COc1ccc(C[C@@H](C)NC[C@H](O)c2cccnc2C2=CCCC2)cc1` [Compound 03-63], the EC50 was > 1000 nM.

Same assay, conditions: B1-AR; CHO-K1 (HitHunter)
With `CC(C)(C)NC[C@@H](O)c1cccc(C2CCC2)n1` [Compound 03-162] the “Average pEC50 [Receptor subtype: B1-AR; Cell type: CHO-K1 (HitHunter)]” value was “D (D < 6)”.

Same assay, conditions: B1-AR; CHO-K1 (HitHunter); read-out: Average pEC50 [Receptor subtype: B1-AR; Cell type: CHO-K1 (HitHunter)] (converted)
Work on `COc1ccc(C[C@@H](C)NC[C@H](O)c2cccc(OC(F)(F)F)n2)cc1` [Compound 03-257] yielded an EC50 of 10 to 100 nM. Work on `CC(C)(C)NC[C@H](O)c1cccnc1OC(F)(F)F` [Compound 03-70] yielded an EC50 of 100 to 1000 nM. For `CC(C)(C)NC[C@H](O)c1cccc(C(C)(C)C)n1` [Compound 03-209], the EC50 was < 10 nM. With `CC(C)(C)NC[C@H](O)c1cccc(C2CCCC2)n1` [Compound 03-237] the EC50 was 10 to 100 nM. With `C=CCc1ncccc1[C@@H](O)CNC(C)(C)C` [Compound 03-243] the EC50 was > 1000 nM. `CC(C)(C)NC[C@@H](O)c1ccnc(C#N)c1` [Compound 03-111] was tested, and the EC50 was > 1000 nM. `CN(C)c1cccc([C@@H](O)CNC(C)(C)C)n1` [Compound 03-153] showed an EC50 of 10 to 100 nM. `CC(C)(C)NC[C@H](O)c1cc(F)cnc1C1=CCCC1` [Compound 03-89] was tested, and the EC50 was > 1000 nM. With `Cc1ncc(Cl)cc1[C@@H](O)CNC(C)(C)C` [Compound 03-267] the EC50 was 100 to 1000 nM. In the case of `CC(C)(C)NC[C@H](O)c1cccc(C2CCOCC2)n1` [Compound 03-121], the EC50 is reported as 100 to 1000 nM. `Cc1ccc([C@@H](O)CNC(C)(C)C)c(C)n1` [Compound 03-67] showed an EC50 of 100 to 1000 nM. Work on `CC(C)(C)NC[C@@H](O)c1cccc(-n2ccnc2)n1` [Compound 03-228] yielded an EC50 of 10 to 100 nM. `CC(C)(C)NC[C@H](O)c1cccc(NC2CCC2)n1` [Compound 03-190] showed an EC50 of 10 to 100 nM. Work on `CC(C)(C)NC[C@H](O)c1cccc(C2=CCCC2)n1` [Compound 03-197] yielded an EC50 of 10 to 100 nM. `CC(C)(C)NC[C@H](O)c1cccc(-n2nccn2)n1` [Compound 03-101] was tested, and the EC50 was > 1000 nM. In the case of `Cn1cc(-c2cccc([C@@H](O)CNC(C)(C)C)n2)cn1` [Compound 03-215], the EC50 is reported as 100 to 1000 nM. `CC(C)(C)NC[C@@H](O)c1cccc(Cl)n1` [Compound 03-230] was tested, and the EC50 was 10 to 100 nM.

Same assay, conditions: B1-AR; CHO-K cells; read-out: Average EC50 [Receptor subtype: B1-AR; Cell type: CHO-K]
In the case of `CC(C)(C)NC[C@@H](O)c1cccc(C2CCC2)n1` [Compound 03-162], the EC50 is reported as > 1000 nM. `CN(C)c1cccc([C@@H](O)CNC(C)(C)C)n1` [Compound 03-153] showed an EC50 of 10 to 100 nM. Work on `CC(C)(C)NC[C@H](O)c1cccc(C2CCOCC2)n1` [Compound 03-121] yielded an EC50 of 10 to 100 nM.

From patent US10947196B2, “Beta adrenergic agonist and methods of using the same” (CURASEN THERAPEUTICS, INC., priority 2019, dated 2021)
